Experiments:
Experiment in all cases: relative viability (nuclei count vs DMSO), 5 days (fraction); higher = more cells survive
[1] = compound: C1COCCN1C2=NC(=NC3=C2OC4=C3C=CC=N4)C5=CC(=CC=C5)NC(=O)C6=CN=C(C=C6)N + Cc1cc(Nc2cc(N3CCN(C)CC3)nc(Sc3ccc(NC(=O)C4CC4)cc3)n2)n[nH]1 [Tozasertib] (partner 0.1 µM)
In short: (§1)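 Cells from lung cancer lines were seeded into 1536-well plates and, one day later, dosed by pin tool. Treatments were either a single drug or a fixed dose of an anchor drug with five library-drug doses (not always all listed) in √10 steps. After 5 days, nuclei were stained in a one-step fixation (final 0.05% Triton X-100, 1% formaldehyde, 1 ug/ml Hoechst) and counted on 4× images, and relative viability is the treated-to-vehicle nuclei ratio, as the median of duplicate plates.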

SGI-1776 + OSI-027 = compound: CN1CCC(CNc2ccc3ncc(-c4cccc(OC(F)(F)F)c4)n3n2)CC1 [SGI-1776] + COc1cccc2cc(-c3nc([C@H]4CC[C@H](C(=O)O)CC4)n4ncnc(N)c34)[nH]c12 [OSI-027] (partner 0.5 µM)
In short: as §1

Entinostat + Pictilisib = compound: Nc1ccccc1NC(=O)c1ccc(CNC(=O)OCc2cccnc2)cc1 [Entinostat] + CS(=O)(=O)N1CCN(Cc2cc3nc(-c4cccc5[nH]ncc45)nc(N4CCOCC4)c3s2)CC1 [Pictilisib] (partner 1 µM)
In short: as §1

Entinostat + Vorinostat = compound: Nc1ccccc1NC(=O)c1ccc(CNC(=O)OCc2cccnc2)cc1 [Entinostat] + O=C(CCCCCCC(=O)Nc1ccccc1)NO [Vorinostat] (partner 1 µM)
In short: as §1

| Cell Line | relative viability ([1]; first compound 0.02 µM) | relative viability ([1]; first compound 0.06325 µM) | relative viability ([1]; first compound 0.2 µM) | relative viability ([1]; first compound 0.6325 µM) | relative viability ([1]; first compound 2 µM) | relative viability (SGI-1776 + OSI-027; first compound 0.08 µM) | relative viability (SGI-1776 + OSI-027; first compound 0.8 µM) | relative viability (SGI-1776 + OSI-027; first compound 2.53 µM) | relative viability (SGI-1776 + OSI-027; first compound 8 µM) | relative viability (Entinostat + Pictilisib; first compound 0.02 µM) | relative viability (Entinostat + Pictilisib; first compound 0.06325 µM) | relative viability (Entinostat + Pictilisib; first compound 0.2 µM) | relative viability (Entinostat + Pictilisib; first compound 0.6325 µM) | relative viability (Entinostat + Pictilisib; first compound 2 µM) | relative viability (Entinostat + Vorinostat; first compound 0.02 µM) | relative viability (Entinostat + Vorinostat; first compound 0.06325 µM) | relative viability (Entinostat + Vorinostat; first compound 0.2 µM) | relative viability (Entinostat + Vorinostat; first compound 0.6325 µM) | relative viability (Entinostat + Vorinostat; first compound 2 µM) |
| --- | --- | --- | --- | --- | --- | --- | --- | --- | --- | --- | --- | --- | --- | --- | --- | --- | --- | --- | --- |
| NCI-H520 | 0.431 | 0.437 | 0.413 | 0.479 | 0.327 | 0.255 | 0.263 | 0.249 | 0.223 | 0.327 | 0.284 | 0.32 | 0.282 | 0.275 | 0.634 | 0.732 | 0.764 | 0.491 | 0.306 |
| NCI-H596 | 0.85 | 0.932 | 0.874 | 0.761 | 0.661 | 0.809 | 0.761 | 0.682 | 0.467 | 0.401 | 0.4 | 0.372 | 0.333 | 0.348 | 0.603 | 0.694 | 0.708 | 0.589 | 0.41 |
| NCI-H647 | 0.155 | 0.292 | 0.252 | 0.137 | 0.145 | 0.712 | 0.613 | 0.559 | 0.301 | 0.508 | 0.755 | 0.469 | 0.314 | 0.093 | 0.513 | 0.577 | 0.345 | 0.209 | 0.0916 |
| NCI-H650 | 0.769 | 0.766 | 0.737 | 0.799 | 0.513 | 0.565 | 0.489 | 0.501 | 0.378 | 0.934 | 0.914 | 0.75 | 0.579 | 0.269 | 0.45 | 0.469 | 0.35 | 0.367 | 0.181 |
| NCI-H661 | 0.34 | 0.347 | 0.328 | 0.342 | 0.354 | 0.766 | 0.867 | 0.611 | 0.596 | 0.47 | 0.614 | 0.559 | 0.565 | 0.407 | 0.718 | 0.774 | 0.707 | 0.58 | 0.468 |
| NCI-H727 | 0.668 | 0.839 | 0.599 | 0.467 | 0.524 | 0.543 | 0.627 | 0.615 | 0.438 | 0.357 | 0.355 | 0.689 | 0.2 | 0.219 | 1.24 | 1.27 | 1.16 | 1.06 | 0.673 |
| NCI-H838 | 0.278 | 0.278 | 0.256 | 0.257 | 0.182 | 0.414 | 0.401 | 0.308 | 0.246 | 0.439 | 0.613 | 0.72 | 0.461 | 0.237 | 0.784 | 0.688 | 0.667 | 0.458 | 0.257 |
| NCI-H1355 | 0.628 | 0.602 | 0.515 | 0.36 | 0.352 | 0.46 | 0.486 | 0.402 | 0.305 | 0.473 | 0.411 | 0.389 | 0.254 | 0.201 | 0.604 | 0.638 | 0.62 | 0.504 | 0.381 |
